From patent US9855239B2, “Methods for the treatment and prevention of age-related retinal dysfunction” (University of Washington, priority 2008, dated 2018)
“Also recorded” adds a separate entry of the source.

Columns and labels:
[1] = test system: Lrat−/− and Rpe65−/− knockout mice; conditions: cited from earlier work
C57BL/6 female mice [2] = assay: Recovery of ERG response (dark adaptation) after bleach, long-term treatment; assay type: in vivo, mouse; conditions: 14 months of age, treated (9-cis-R-Ac: N2 and N3) vs C2; 500 cd·m^−2 for 3 min, 60 min dark adaptation
Description: Recovery of the ERG response (dark adaptation) following bleach was measured by monitoring the amplitude of a-waves after retinal exposure to intense constant illumination (500 cd·m^−2, ˜90% bleached rhodopsin) for 3 min. […] Retinoid kinetics in the eyes of each group were quantitatively evaluated during 60 min of dark adaptation after 3 min of bleaching at four subsequent time points of dark adaptation (0, 10, 30, and 60 min). […] Neither 9-cis-retinal nor 9-cis-retinyl esters were found in eyes from untreated groups (data not shown).
(§1) Six groups of mice were studied (FIG. 1B).
(§2) Two weeks after the last gavage with either, 9-cis-R-Ac, all-trans-R-Ac or vehicle, groups of 48 hr dark-adapted mice were analyzed for recovery of dark adaptation after light exposure, purified rhodopsin/opsin and retinoids in the eye and retinal morphology (FIG. 1C; Methods). Mice were exposed to light of intensity 500 cd·m^−2 that bleached ˜90% of rhodopsin, anesthetized and monitored by ERG for one hr to evaluate recovery of dark adaptation. Rhodopsin was purified and rhodopsin/opsin ratios was determined. Retinoid analyses were performed on dissected eyes removed at 0, 10, 30, and 60 min after exposure to the same amount of light. Mice used to evaluate retinal morphology were not exposed to photobleaching prior to analysis.
(§3) ERGs of anesthetized mice were recorded as previously reported.

C57BL/6 female mice [3] = assay: Single flash ERG analyses after long-term treatment; assay type: in vivo, mouse; conditions: 14 months of age, monthly gavage ~80 mg/kg (9-cis-R-Ac: N2 and N3), vs control C2; 80 mg/kg
Text: To evaluate the effects of rod- and cone-mediated light responses after long-term 9-cis-R-Ac treatments, mice were examined by non-invasive ERG methods. The first set of analyses was done at 4 and 10 months of age. Under scotopic conditions, the amplitudes of a-waves decreased with age, especially at high flash intensities (C1 versus C0 group, FIG. 4A, left top panel), whereas the changes in b-waves were less evident (FIG. 4A, right top panel).
The second set of analyses was done at 14 months of age.
as §1, §2, §3

retina = assay: Retinal morphology (light and electron microscopy); assay type: in vivo, mouse; conditions: 10 and 14 months of age
Description: The thickness of each major layer in the retina was also similar between control and treated groups.
For light microscopy, mouse eyecups were fixed with 2.5% glutaraldehyde and 1.6% paraformaldehyde in 0.08 M 1,4-piperazinediethanesulfonate buffer (PIPES) (pH 7.4) containing 2% sucrose for ˜1 hr at room temperature followed by 23 hr at 4° C. Eyecups then were washed with 0.13 M sodium phosphate buffer (pH 7.3) and dehydrated through a CH3OH series and embedded in JB4 glycol metacrylate. Sections (6 μm) were stained by immersion in 5% Richardson's stain for 1.5-2 min at room temperature and destained in 0.13 M sodium phosphate (pH 7.3) until the retinal layers were visible by light microscopy (about 8-15 min). For transmission electron microscopy, mouse eyecups were analyzed as described previously (Maeda, A., et al. J Blot Chem 280, 18822-18832 (2005); Maeda, T., Lem, J., Palczewski, K. & Haeseleer, F. Investigative ophthalmology & visual science 46, 4320-4327 (2005)).

Q: With CC1=C(/C=C/C(C)=C\C=C\C(C)=C\C=O)C(C)(C)CCC1 [9-cis-retinal] as the molecule, how does the “retinal morphology and rod function (single cell recordings, ERG)” value ([1]; mouse, in vivo, po) read?
A: preserved retinal morphology and recovery of normal rod function

Q: Which “recovery of ERG a-wave response (dark adaptation) after bleach” value (C57BL/6 female mice [2]) does the source give for CC(=O)OC/C=C(C)/C=C/C=C(C)/C=C/C1=C(C)CCCC1(C)C [all-trans-R-Ac, reference compound] here?
A: no significant difference

Q: What about the “a- and b-wave amplitudes, scotopic and photopic single flash ERG” value (C57BL/6 female mice [3]) of the same molecule?
A: no significant difference; also recorded: no effect

Q: And the “retinal abnormalities by light microscopy” value (retina)?
A: no major abnormalities

Q: For CC1=C(/C=C/C(C)=C/C=C/C(C)=C/C=O)C(C)(C)CCC1 [11-cis-retinal], which vision ([1]; intraperitoneal injection, Rpe65−/− mice) is on record?
A: improves vision
